Laboratory results from patent publication US9492471B2, “Methods of treating a disease or disorder associated with Bruton'S Tyrosine Kinase” (Celgene Avilomics Research, Inc., priority 2013, dated 2016).
Like-named read-outs stand apart in the source and are kept apart here.

Key:
Test in all cases: HotSpot kinase profiling
Assay type in all cases: biochemical
[1] = biological target: T1, EPHB2 (Homo sapiens, UniProt P29323)
T1 construct: purchased Reaction Biology Corp
T1 sequence (P29323 19-1055): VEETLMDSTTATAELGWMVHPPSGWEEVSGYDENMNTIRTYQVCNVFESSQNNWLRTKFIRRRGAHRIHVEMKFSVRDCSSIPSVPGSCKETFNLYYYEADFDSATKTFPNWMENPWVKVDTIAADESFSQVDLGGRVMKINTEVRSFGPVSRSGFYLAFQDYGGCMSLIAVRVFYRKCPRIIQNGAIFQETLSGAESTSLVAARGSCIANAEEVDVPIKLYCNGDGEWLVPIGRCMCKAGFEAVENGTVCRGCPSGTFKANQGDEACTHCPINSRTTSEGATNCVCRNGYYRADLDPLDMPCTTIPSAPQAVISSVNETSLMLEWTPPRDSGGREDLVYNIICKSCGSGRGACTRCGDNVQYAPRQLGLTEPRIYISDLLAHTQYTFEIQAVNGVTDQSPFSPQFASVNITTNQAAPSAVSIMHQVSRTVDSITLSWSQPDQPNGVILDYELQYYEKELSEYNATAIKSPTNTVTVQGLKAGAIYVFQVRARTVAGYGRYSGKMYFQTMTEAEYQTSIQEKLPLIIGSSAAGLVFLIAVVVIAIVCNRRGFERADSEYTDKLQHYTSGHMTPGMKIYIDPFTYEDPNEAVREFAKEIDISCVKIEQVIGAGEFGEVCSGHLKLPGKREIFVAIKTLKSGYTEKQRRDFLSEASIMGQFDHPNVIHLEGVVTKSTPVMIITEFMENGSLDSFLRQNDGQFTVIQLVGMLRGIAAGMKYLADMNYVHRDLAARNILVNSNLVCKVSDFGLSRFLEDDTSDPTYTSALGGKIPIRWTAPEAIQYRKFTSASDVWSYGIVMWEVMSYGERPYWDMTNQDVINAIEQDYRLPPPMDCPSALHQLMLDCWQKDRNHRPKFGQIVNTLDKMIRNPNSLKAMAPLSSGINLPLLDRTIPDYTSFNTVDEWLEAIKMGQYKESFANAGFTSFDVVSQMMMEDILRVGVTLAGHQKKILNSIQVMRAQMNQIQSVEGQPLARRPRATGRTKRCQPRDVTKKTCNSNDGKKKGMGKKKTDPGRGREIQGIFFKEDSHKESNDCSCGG
Experimental: (§1) The binding assay system for profiling kinase activity were based upon HotSpot technology (Reaction Biology Corp.; Malvern, Pa., USA) and utilized radio-isotope-based P81 filtration. […] Substrates for the various kinases tested against Compound 2 (substrate information available on the Reaction Biology Corp. website) were prepared fresh daily in Reaction Buffer. Any required cofactors were then added to the substrate solution. The identification and selection of the appropriate cofactor for each kinase is within the ability of a person skilled in the art. See, for example, Handbook of Assay Development in Drug Discovery, Ed. Lisa K. Minor, 2006: CRC Press, Boca Raton, Fla.; Gao et al., “A broad activity screen in support of a chemogenomic map for kinase signalling research and drug discovery,” Biochem J. 2013, 451(2): 313-28; and Eglen et al., “Drug discovery and the human kinome: Recent trends,” Pharmacology & Therapeutics 2011, 130(2): 144-156. The kinase was then added to the substrate solution and gently mixed. […] This was followed by incubation at room temperature for 2 h. The reaction was terminated and any unreacted phosphate was washed away using 0.1% phosphoric acid prior to detection utilizing a proprietary technology. […] DMSO was used as the negative control.
(§2) Percent inhibition was expressed as an average where the assay was performed more than once, e.g., in duplicate.

[2] = biological target: T2, IKKe/IKBKE (Homo sapiens, UniProt Q14164)
T2 construct: purchased Reaction Biology Corp
T2 sequence (Q14164 1-716): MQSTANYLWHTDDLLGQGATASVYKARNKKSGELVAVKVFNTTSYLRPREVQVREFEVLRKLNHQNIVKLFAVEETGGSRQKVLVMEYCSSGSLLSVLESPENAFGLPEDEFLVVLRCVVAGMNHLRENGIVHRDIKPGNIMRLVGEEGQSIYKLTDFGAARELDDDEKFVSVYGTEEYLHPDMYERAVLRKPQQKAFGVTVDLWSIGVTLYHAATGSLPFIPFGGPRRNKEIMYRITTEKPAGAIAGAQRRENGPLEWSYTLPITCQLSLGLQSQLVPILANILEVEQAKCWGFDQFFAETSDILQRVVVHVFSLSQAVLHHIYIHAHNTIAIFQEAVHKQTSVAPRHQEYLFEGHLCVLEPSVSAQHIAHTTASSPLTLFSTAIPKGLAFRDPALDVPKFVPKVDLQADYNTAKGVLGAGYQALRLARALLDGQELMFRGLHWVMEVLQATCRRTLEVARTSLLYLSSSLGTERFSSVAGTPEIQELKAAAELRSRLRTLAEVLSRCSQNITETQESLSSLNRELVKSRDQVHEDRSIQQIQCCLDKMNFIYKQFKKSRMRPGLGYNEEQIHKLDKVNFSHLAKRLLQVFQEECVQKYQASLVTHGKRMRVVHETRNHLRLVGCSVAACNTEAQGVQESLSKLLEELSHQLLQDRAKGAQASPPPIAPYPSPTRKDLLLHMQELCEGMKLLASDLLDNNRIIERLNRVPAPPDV
Experimental: as §1, §2

[3] = biological target: T3, LIMK2 (Homo sapiens, UniProt P53671)
T3 construct: purchased Reaction Biology Corp
T3 sequence (P53671 whole entry): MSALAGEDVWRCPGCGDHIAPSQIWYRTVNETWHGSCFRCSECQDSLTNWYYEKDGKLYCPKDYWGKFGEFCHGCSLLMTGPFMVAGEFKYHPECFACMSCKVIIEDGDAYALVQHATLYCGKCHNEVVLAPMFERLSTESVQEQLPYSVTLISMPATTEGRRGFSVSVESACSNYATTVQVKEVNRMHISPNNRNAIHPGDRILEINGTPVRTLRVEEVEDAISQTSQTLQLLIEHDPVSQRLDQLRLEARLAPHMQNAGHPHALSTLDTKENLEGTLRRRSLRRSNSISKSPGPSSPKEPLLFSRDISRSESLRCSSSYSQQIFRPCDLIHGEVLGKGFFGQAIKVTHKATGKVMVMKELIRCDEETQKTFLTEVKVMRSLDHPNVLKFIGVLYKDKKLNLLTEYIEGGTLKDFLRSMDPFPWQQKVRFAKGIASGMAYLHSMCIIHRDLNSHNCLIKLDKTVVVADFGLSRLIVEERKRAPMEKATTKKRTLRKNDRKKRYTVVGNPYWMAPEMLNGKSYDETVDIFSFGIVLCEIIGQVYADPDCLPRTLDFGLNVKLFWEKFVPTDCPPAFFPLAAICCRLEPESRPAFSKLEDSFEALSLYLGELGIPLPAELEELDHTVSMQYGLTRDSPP
Experimental: as §1, §2

[4] = biological target: T4, PBK/TOPK (Homo sapiens, UniProt Q96KB5)
T4 construct: purchased Reaction Biology Corp
T4 sequence (Q96KB5 1-322): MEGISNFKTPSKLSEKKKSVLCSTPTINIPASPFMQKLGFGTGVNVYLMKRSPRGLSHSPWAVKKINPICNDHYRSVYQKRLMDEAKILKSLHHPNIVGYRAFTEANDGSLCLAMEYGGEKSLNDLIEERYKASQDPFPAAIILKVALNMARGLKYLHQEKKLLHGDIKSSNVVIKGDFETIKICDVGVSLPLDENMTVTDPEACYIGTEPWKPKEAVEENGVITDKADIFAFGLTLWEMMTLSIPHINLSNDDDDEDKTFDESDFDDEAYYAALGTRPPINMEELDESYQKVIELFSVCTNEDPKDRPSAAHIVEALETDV
Experimental: as §1, §2

[5] = biological target: T5, ZIPK/DAPK3 (Homo sapiens, UniProt O43293)
T5 construct: purchased Reaction Biology Corp
T5 sequence (O43293 whole entry): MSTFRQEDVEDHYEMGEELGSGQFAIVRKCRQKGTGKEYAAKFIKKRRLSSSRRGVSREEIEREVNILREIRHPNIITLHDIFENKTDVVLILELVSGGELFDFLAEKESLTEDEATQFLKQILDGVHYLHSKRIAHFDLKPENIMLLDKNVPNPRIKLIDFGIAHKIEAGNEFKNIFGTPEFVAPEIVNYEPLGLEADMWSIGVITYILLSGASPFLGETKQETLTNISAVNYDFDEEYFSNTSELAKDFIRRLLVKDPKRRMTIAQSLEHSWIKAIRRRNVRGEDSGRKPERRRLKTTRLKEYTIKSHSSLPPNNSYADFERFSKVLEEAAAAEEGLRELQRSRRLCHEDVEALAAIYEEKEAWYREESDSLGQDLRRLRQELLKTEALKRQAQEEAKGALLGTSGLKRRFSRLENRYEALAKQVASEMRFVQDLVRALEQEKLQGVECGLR
Experimental: as §1, §2

[6] = read-out: % Enzyme Activity (relative to DMSO controls) Run 1
[7] = read-out: % Enzyme Activity (relative to DMSO controls) Run 2

With `C=CC(=O)Nc1cccc(Nc2nc(Nc3ccc(OCCOC)c(F)c3)ncc2F)c1` [Compound 2] the inhibition at 3 µM [1] was -5.45%, the remaining activity at 3 µM [1, 6] was 104% and the remaining activity at 3 µM [1, 7] was 107%. It also gave an inhibition at 3 µM [2] of 21.8%, a remaining activity at 3 µM [2, 6] of 78.3% and a remaining activity at 3 µM [2, 7] of 78.2%. For the same compound, the inhibition at 3 µM [3] was -0.86%, the remaining activity at 3 µM [3, 6] was 101% and the remaining activity at 3 µM [3, 7] was 101%. It also gave an inhibition at 3 µM [4] of 3.07%, a remaining activity at 3 µM [4, 6] of 98.6% and a remaining activity at 3 µM [4, 7] of 95.3%. The inhibition at 3 µM [5] was -11.3%, the remaining activity at 3 µM [5, 6] was 109% and the remaining activity at 3 µM [5, 7] was 113%.
